Assay results: PubChem BioAssay AID330 (DTP/NCI, 2004)
Values joined by “and” are separate entries in the source; they are usually repeats but may differ in a detail not shown here. Identical values can stand only once. Inconclusive results and toxic doses are left out. The calls were made as follows: active = survival T/C of 150% or more; inactive = T/C below 125% in these data. Square brackets hold non-standard residues; d marks the D form. Peptide text beside a SMILES is read from it. ξ: configuration not given here. Ac5c = NC1(C(=O)O)CCCC1; ξP = O=C(O)C1CCCN1

System: P388 leukemia ip, CD2F1 mice, survival T/C
Experiment: NCI In Vivo Anticancer Drug Screen. Data for tumor model P388 Leukemia (intraperitoneal) in CD2F1 (CDF1) mice
Conditions: endpoint: median survival time, higher = longer survival
How it was run: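 Mice carrying the transplanted tumor received test compound or vehicle. Survival was recorded in each group, and the value is the treated-group measurement divided by that of the vehicle-treated control group.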

[1] = dose: 12.5 mg/kg/injection, schedule: Q01DX005 (ip), vehicle: distilled water + Tween-80
[2] = dose: 25.0 mg/kg/injection, schedule: Q01DX005 (ip), vehicle: distilled water + Tween-80
[3] = dose: 50.0 mg/kg/injection, schedule: Q01DX005 (ip), vehicle: distilled water + Tween-80
[4] = dose: 50.0 mg/kg/injection, schedule: Q01DX005 (ip), vehicle: Klucel (hydroxypropylcellulose) (HPC)
[5] = dose: 100.0 mg/kg/injection, schedule: Q01DX005 (ip), vehicle: Klucel (hydroxypropylcellulose) (HPC)
[6] = dose: 200.0 mg/kg/injection, schedule: Q01DX005 (ip), vehicle: Klucel (hydroxypropylcellulose) (HPC)
[7] = dose: 60.0 mg/kg/injection, schedule: Q01DX005 (ip), vehicle: saline with Tween-80
[8] = dose: 120.0 mg/kg/injection, schedule: Q01DX005 (ip), vehicle: saline with Tween-80
[9] = dose: 240.0 mg/kg/injection, schedule: Q01DX005 (ip), vehicle: saline with Tween-80
[10] = dose: 12.5 mg/kg/injection, schedule: Q01DX005 (ip), vehicle: saline with Tween-80
[11] = dose: 25.0 mg/kg/injection, schedule: Q01DX005 (ip), vehicle: saline with Tween-80
[12] = dose: 50.0 mg/kg/injection, schedule: Q01DX005 (ip), vehicle: saline with Tween-80
[13] = dose: 50.0 mg/kg/injection, schedule: Q01DX009 (ip), vehicle: saline with Tween-80
[14] = dose: 100.0 mg/kg/injection, schedule: Q01DX009 (ip), vehicle: saline with Tween-80
[15] = dose: 200.0 mg/kg/injection, schedule: Q01DX009 (ip), vehicle: saline with Tween-80
[16] = dose: 50.0 mg/kg/injection, schedule: Q01DX009 (ip), vehicle: saline
[17] = dose: 200.0 mg/kg/injection, schedule: Q01DX009 (ip), vehicle: saline

Measured: T/C

CC(=O)c1ccc(NN=NCCCl)cc1
inactive: dose: 12.5 mg/kg/injection, schedule: Q01DX009 (ip), vehicle: distilled water + Tween-80 98 % of control | dose: 25.0 mg/kg/injection, schedule: Q01DX009 (ip), vehicle: distilled water + Tween-80 100 % of control | dose: 50.0 mg/kg/injection, schedule: Q01DX009 (ip), vehicle: distilled water + Tween-80 104 % of control | dose: 100.0 mg/kg/injection, schedule: Q01DX009 (ip), vehicle: distilled water + Tween-80 104 % of control | dose: 200.0 mg/kg/injection, schedule: Q01DX009 (ip), vehicle: distilled water + Tween-80 107 % of control

CCN(CC)CCNc1ccc(C)c2oc3ccc(O)cc3c(=O)c12
inactive: [1] 106 % of control | [2] 106 % of control | [3] 117 % of control

COc1ccccc1P(=S)(c1ccccc1)c1ccccc1
inactive: [4] 99 % of control | [5] 99 % of control | [6] 96 % of control

O=C1OC(=O)C2C3C=CC(C4C=C(C5CC5)C43)C12 (stereo not drawn)
inactive: dose: 100.0 mg/kg/injection, schedule: Q04DX003 (ip), vehicle: saline 102 % of control | dose: 200.0 mg/kg/injection, schedule: Q04DX003 (ip), vehicle: saline 107 % of control | dose: 400.0 mg/kg/injection, schedule: Q04DX003 (ip), vehicle: saline 111 % of control

Brc1ccc(COC2C[C@]34CC=CC[C@@]3(C2)O4)cc1 (stereo partly drawn)
inactive: [4] 105 % of control | [5] 103 % of control | [6] 105 % of control

CCCCS(=O)CCC(N)C(=O)O (stereo not drawn)
inactive: [7] 98 % of control | [8] 94 % of control | [9] 93 % of control

CCOC(=O)c1cc2c(=O)c3c(ccc4ccccc43)oc2n(C)c1=O
inactive: [10] 96 % of control | [11] 94 % of control | [12] 88 % of control

NC1(C(=O)N2CCCC2C(=O)O)CCCC1 (stereo not drawn) (H-[Ac5c]-[ξP]-OH)
inactive: dose: 50.0 mg/kg/injection, schedule: Q01DX005 (ip), vehicle: saline 96 % of control | dose: 100.0 mg/kg/injection, schedule: Q01DX005 (ip), vehicle: saline 89 % of control | dose: 200.0 mg/kg/injection, schedule: Q01DX005 (ip), vehicle: saline 108 % of control

CCN(CC)P(=S)(c1ccccc1CCP(=S)(c1ccccc1)c1ccccc1)N(CC)CC
inactive: [7] 92 % of control | [8] 93 % of control | [9] 91 % of control

c1cc2c(cc1CN1CCOCC1)Sc1cc(CN3CCOCC3)ccc1N2
inactive: dose: 60.0 mg/kg/injection, schedule: Q01DX005 (ip), vehicle: Klucel (hydroxypropylcellulose) (HPC) 96 % of control | dose: 120.0 mg/kg/injection, schedule: Q01DX005 (ip), vehicle: Klucel (hydroxypropylcellulose) (HPC) 89 % of control | dose: 240.0 mg/kg/injection, schedule: Q01DX005 (ip), vehicle: Klucel (hydroxypropylcellulose) (HPC) 92 % of control

N/N=C/c1cccn1-c1ccccc1Cl
inactive: [7] 93 % of control | [8] 92 % of control

CN1CCC2CC(=O)NC1(C)C2(C)C (stereo not drawn)
inactive: dose: 100.0 mg/kg/injection, schedule: Q01DX001 (ip), vehicle: saline 104 % of control | dose: 200.0 mg/kg/injection, schedule: Q01DX001 (ip), vehicle: saline 106 % of control | dose: 400.0 mg/kg/injection, schedule: Q01DX001 (ip), vehicle: saline 106 % of control

CCCC(NC(=O)C(F)(F)F)C(=O)O (stereo not drawn)
inactive: [13] 91 % of control | [14] 93 % of control | [15] 106 % of control

CCCCOC(OCCCC)C(C)N (stereo not drawn)
inactive: [10] 108 % of control | [11] 106 % of control | [12] 103 % of control and 107 % of control

Nc1cccc(C(=O)NCCNC(=O)c2cccc(N)c2O)c1O
inactive: [4] 98 % of control | [5] 97 % of control | [6] 95 % of control

CN1C2CCC1CC(OC(=O)C(CO)c1ccccc1)C2 (stereo not drawn)
inactive: dose: 12.5 mg/kg/injection, schedule: Q01DX009 (ip), vehicle: saline with Tween-80 105 % of control and 95 % of control | dose: 25.0 mg/kg/injection, schedule: Q01DX009 (ip), vehicle: saline with Tween-80 100 % of control and 111 % of control | [13] 103 % of control and 92 % of control | [14] 100 % of control and 95 % of control | dose: 150.0 mg/kg/injection, schedule: Q01DX009 (ip), vehicle: saline with Tween-80 112 % of control and 95 % of control

CC1(C)NN=C([N+](=O)[O-])C1c1ccccc1 (stereo not drawn)
inactive: [7] 107 % of control | [8] 111 % of control | [9] 107 % of control

COC(=O)C(=Cc1ccc(OC)cc1)C(=O)OC
inactive: [16] 95 % of control | dose: 100.0 mg/kg/injection, schedule: Q01DX009 (ip), vehicle: saline 95 % of control | [17] 92 % of control

c1ccc(-c2csc(-c3nc(-c4ccccc4)cs3)n2)cc1
inactive: dose: 25.0 mg/kg/injection, schedule: Q01DX009 (ip), vehicle: Klucel (hydroxypropylcellulose) (HPC) 117 % of control | dose: 50.0 mg/kg/injection, schedule: Q01DX009 (ip), vehicle: Klucel (hydroxypropylcellulose) (HPC) 113 % of control | [7] 99 % of control | dose: 100.0 mg/kg/injection, schedule: Q01DX009 (ip), vehicle: Klucel (hydroxypropylcellulose) (HPC) 118 % of control | [8] 96 % of control | dose: 200.0 mg/kg/injection, schedule: Q01DX009 (ip), vehicle: Klucel (hydroxypropylcellulose) (HPC) 110 % of control | [9] 96 % of control

c1ccc2c(c1)Nc1ccccc1C1CC21 (stereo not drawn)
inactive: [13] 96 % of control | [14] 99 % of control | [15] 92 % of control

CC(C)c1nc(N)nc(N)n1
inactive: [16] 93 % of control | [17] 90 % of control

O=[N+]([O-])c1ccc(Nc2ccc(Cl)cc2)c2nonc12
inactive: [12] 100 % of control | dose: 100.0 mg/kg/injection, schedule: Q01DX005 (ip), vehicle: saline with Tween-80 103 % of control | dose: 200.0 mg/kg/injection, schedule: Q01DX005 (ip), vehicle: saline with Tween-80 97 % of control

COc1ccc(NC2=NC(C)(CO)CS2)cc1 (stereo not drawn)
inactive: [13] 116 % of control | [14] 96 % of control | [15] 107 % of control

COc1ccc(C(c2cc3c(cc2O)OCO3)N2CCN(C(c3ccc(OC)c(O)c3)c3cc4c(cc3O)OCO4)CC2)cc1O (stereo not drawn)
inactive: [7] 96 % of control | [8] 101 % of control | [9] 112 % of control

Cn1nncc1NS(=O)(=O)c1ccc([N+](=O)[O-])cc1
inactive: dose: 100.0 mg/kg/injection, schedule: Q01DX001 (ip), vehicle: saline with Tween-80 107 % of control | dose: 200.0 mg/kg/injection, schedule: Q01DX001 (ip), vehicle: saline with Tween-80 115 % of control | dose: 400.0 mg/kg/injection, schedule: Q01DX001 (ip), vehicle: saline with Tween-80 98 % of control

O=C(N[C@@H](CO)[C@H]1CC(Br)=NO1)C(Cl)(Cl)Cl
inactive: [1] 100 % of control | [2] 102 % of control | [3] 105 % of control | dose: 100.0 mg/kg/injection, schedule: Q01DX005 (ip), vehicle: distilled water + Tween-80 107 % of control

N#Cc1c(-c2ccc(Cl)cc2)c(-c2ccc(Cl)cc2)nn(CCCl)c1=O
inactive: dose: 100.0 mg/kg/injection, schedule: Q04DX002 (ip), vehicle: saline with Tween-80 91 % of control | dose: 200.0 mg/kg/injection, schedule: Q04DX002 (ip), vehicle: saline with Tween-80 100 % of control | dose: 400.0 mg/kg/injection, schedule: Q04DX002 (ip), vehicle: saline with Tween-80 91 % of control
